Laboratory results published in PubChem BioAssay (NCI).
“And” between values parts separate entries of the source, which are not always exact repeats. Equal values may be shown once.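 Grown in 96-well plates, cells were treated for 48 hours with each compound at five concentrations. Insufficient inhibition: endpoint recorded as highest concentration tested. GI50 = concentration required for 50% inhibition of growth. Definition used: TGI = concentration required for complete inhibition of growth.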

Assays:
Test in all cases: NCI tumour cell line growth inhibition, 48 h
SK-MEL-28 melanoma = tested on: SK-MEL-28 melanoma
COLO 205 colon = tested on: COLO 205 colon
UACC-257 melanoma = tested on: UACC-257 melanoma
NCI-H226 lung = tested on: NCI-H226 lung
NCI-H522 lung = tested on: NCI-H522 lung
MDA-MB-231 breast = tested on: MDA-MB-231 breast
ACHN renal = tested on: ACHN renal
UACC-62 melanoma = tested on: UACC-62 melanoma
SK-MEL-2 melanoma = tested on: SK-MEL-2 melanoma
SR leukemia = tested on: SR leukemia

Structure (SMILES)	GI50 (SK-MEL-28 melanoma)	TGI (SK-MEL-28 melanoma)	GI50 (COLO 205 colon)	TGI (COLO 205 colon)	GI50 (UACC-257 melanoma)	TGI (UACC-257 melanoma)	GI50 (NCI-H226 lung)	TGI (NCI-H226 lung)	GI50 (NCI-H522 lung)	TGI (NCI-H522 lung)	GI50 (MDA-MB-231 breast)	TGI (MDA-MB-231 breast)	GI50 (ACHN renal)	TGI (ACHN renal)	GI50 (UACC-62 melanoma)	TGI (UACC-62 melanoma)	GI50 (SK-MEL-2 melanoma)	TGI (SK-MEL-2 melanoma)	TGI (SR leukemia)	GI50 (SR leukemia)
COC(=O)CCCCCCCCC(=O)c1c(C)[nH]c(/C=C2\N=C(c3ccc[nH]3)C=C2OC)c1C	14.9 µM	> 100 µM	> 100 µM	> 100 µM	14.4 µM	87.8 µM	8.72 µM	> 100 µM	8.55 µM	> 69.9 µM	7.83 µM	> 100 µM	20.6 µM	> 72.7 µM	10.7 µM	> 82.9 µM	8.85 µM	> 29.1 µM		
C=CCN1C(=O)C/C(=C2/CCC(=O)N2CC=C)C1=O		> 100 µM		> 100 µM		> 100 µM		> 100 µM		> 100 µM				> 100 µM		> 100 µM		> 100 µM	> 100 µM	
Cc1ccc(S(=O)(=O)N/N=C/CN2C(=O)c3ccccc3C2=O)cc1				> 100 µM		> 100 µM		> 100 µM		> 100 µM				> 100 µM		> 100 µM		> 100 µM	> 100 µM	
O=C(/C=C/c1ccc(OCCCOc2ccc(/C=C/C(=O)c3ccc(Cl)cc3)cc2)cc1)c1ccc(Cl)cc1		> 100 µM		> 100 µM		> 100 µM		> 100 µM		> 100 µM				> 100 µM		> 100 µM		> 100 µM	> 100 µM	
COc1ccc(OC)c(/C=C/C(=O)c2ccc(SC)cc2)c1	10.1 µM	51.1 µM	5.57 µM	> 100 µM	16.9 µM	33.8 µM	28.9 µM	88.4 µM	6.91 µM	23.4 µM	54 µM	> 100 µM	17.2 µM	38.4 µM	15 µM	29.1 µM	6.12 µM	20.4 µM		
CCc1cc2c(c3[nH]ccc13)[C@@H](C)C[C@H]2C		30 µM		38.1 µM		39.9 µM		31.8 µM		31.9 µM				30.9 µM		32 µM				
CC(C(=O)C(C)O[Si](c1ccccc1)(c1ccccc1)C(C)(C)C)=P(c1ccccc1)(c1ccccc1)c1ccccc1 (stereo unspecified)				3.45 µM		13.5 µM		10.6 µM						14.6 µM		14.4 µM		7.64 µM		
COc1cccc(C2N3CCCCC3[C@@H]3c4[nH]c5ccccc5c4CCN23)c1OC (stereo partly specified)		30.4 µM		29.2 µM		30.1 µM								28.6 µM		24 µM		29.2 µM		
CC(C)N(C(=O)C12C3C4C5C3C1(C(=O)N(C(C)C)C(C)C)C5C42)C(C)C (stereo unspecified)		> 100 µM		> 60.6 µM		> 100 µM		> 100 µM		> 100 µM				> 100 µM		> 100 µM		> 100 µM	38.7 µM	
Cc1nc(=O)n2c(c1C(=O)Nc1ccc(Cl)cc1)NCCC2		> 100 µM		> 100 µM				> 100 µM		> 100 µM				> 100 µM		> 100 µM		> 100 µM	> 100 µM	
O=C1CCC(=O)C(C(=O)CCC(=O)Nc2ccc(Cl)cc2)C1 (stereo unspecified)				> 100 µM		> 100 µM		> 100 µM		> 100 µM				> 100 µM		> 100 µM		> 100 µM		
COc1ccc(CN[C@H]2CCc3cc(OC)c(OC)c(OC)c3-c3ccc(SC)c(=O)cc32)c(OC)c1OC	0.0101 µM	> 100 µM	< 0.01 µM	0.0645 µM and 0.0155 µM	0.037 µM	> 100 µM	0.0172 µM	0.0736 µM and 0.0509 µM		0.0495 µM			0.0428 µM	> 100 µM		19.1 µM	0.0118 µM			< 0.01 µM
CCC[CH2][Sn]1([CH2]CCC)[O]N=Cc2ccccc2[O]1	0.58 µM	1.87 µM	0.713 µM	1.96 µM	1.31 µM	2.74 µM	1.93 µM	3.49 µM	0.102 µM	0.229 µM			1.18 µM	2.43 µM	0.413 µM	1.7 µM	0.317 µM	1.07 µM	2.75 µM	0.342 µM
CC1CCCc2c(CC3CC(=O)NC(=O)C3)nc(N)nc21 (stereo unspecified)		> 100 µM		> 100 µM		> 100 µM		> 100 µM				> 100 µM				> 100 µM		> 100 µM	> 100 µM	
COC(=O)C([O][Ge]([CH3])([CH3])[CH3])c1ccccc1 (stereo unspecified)	> 100 µM	> 100 µM	> 100 µM	> 100 µM	> 100 µM	> 100 µM	> 100 µM	> 100 µM	> 100 µM	> 100 µM			> 100 µM	> 100 µM	> 100 µM	> 100 µM				
CC1(C)CC(=O)C=C(NC(=O)c2ccccc2)C1		> 100 µM		> 100 µM		> 100 µM				> 100 µM						> 100 µM		> 100 µM		
COc1ccc2nc(NC(=O)C(=O)C(C#N)c3ccc(CC#N)cc3)sc2c1 (stereo unspecified)		> 100 µM		> 100 µM		> 100 µM		> 100 µM		> 100 µM				> 100 µM		> 100 µM		> 100 µM		
Cc1ccc(/C=C2\CN(C(=O)CCN3CCC(=NO)CC3)C/C(=C\c3ccc(C)cc3)C2=O)cc1	2.06 µM	4.63 µM					1.83 µM	3.86 µM					1.4 µM	2.83 µM			2.75 µM	7.02 µM		
CCOc1c(Cc2ccccc2)c(=O)n2c3ccccc3n3c(=O)n(C)c(=O)c1c23		> 100 µM		> 100 µM		> 100 µM								> 100 µM		> 100 µM		> 100 µM	> 100 µM	
O=[P+](O)c1cc2c3ccccc3ccc2c2ccccc12		> 100 µM		> 100 µM				94.2 µM		> 100 µM						> 100 µM				
C/C(=N/OCCC(=O)O)C1CC1		> 100 µM		> 100 µM				> 100 µM		> 100 µM				> 100 µM		> 100 µM		> 100 µM	> 100 µM	
